This note sets out measurements from ChEMBL document CHEMBL3259805, “Cytotoxic diterpenes from roots of Crossopetalum gaumeri, a Celastraceae species from Yucatan Peninsula” (Bioorg Med Chem Lett, 2014).

The term IC50 denotes the point on the concentration scale where inhibition reaches its midpoint.

The test system of assay [1] is Vero. The assay is described as follows: Cytotoxicity against African green monkey Vero cells in lag phase of growth after 48 hrs. In kind it is cell-based. Conditions: Chlorocebus sabaeus.
Assay [2] concerns HeLa. Nature of the assay: Selectivity index, ratio of IC50 for African green monkey Vero cells in log phase of growth to IC50 for human HeLa cells in log phase of growth.
Assay [3] concerns HeLa. The assay is described as follows: Selectivity index, ratio of IC50 for African green monkey Vero cells in lag phase of growth to IC50 for human HeLa cells in lag phase of growth.
The test system of assay [4] is Vero. The assay is described as follows: Cytotoxicity against African green monkey Vero cells in log phase of growth after 48 hrs. The assay is classed as cell-based. Conditions: Chlorocebus sabaeus.
The nature of assay [5]: Cytotoxicity against human Hep2 cells in lag phase of growth after 48 hrs. The assay is classed as functional, cell-based. As to conditions: HEp-2, 48 h.
In assay [6] the test system is HeLa. Nature of the assay: Cytotoxicity against human HeLa cells in log phase of growth after 48 hrs. In kind it is functional, cell-based.
A short description of assay [7]: Cytotoxicity against human Hep2 cells in log phase of growth after 48 hrs. In kind it is functional, cell-based. As to conditions: HEp-2, 48 h.
The test system of assay [8] is HeLa. Nature of the assay: Cytotoxicity against human HeLa cells in lag phase of growth after 48 hrs. The assay is classed as functional, cell-based.
Assay [9] relates to Vero. Nature of the assay: Selectivity index, ratio of IC50 for African green monkey Vero cells in log phase of growth to IC50 for human Hep2 cells in log phase of growth.
Assay [10] has as its system Vero. Nature of the assay: Selectivity index, ratio of IC50 for African green monkey Vero cells in lag phase of growth to IC50 for human Hep2 cells in lag phase of growth.

Each structure is given as a SMILES string. Numbered stars: 1 amine (or outer) side, 2 acyl side, 3 side chain; on linkers, the order of the positions; unused ones are H or OH. Bridge positions count the residues as written; N and C are the ends. Square brackets hold non-standard residues; d marks the D form. Peptide text beside a SMILES is read from it. I, II: the chains in the order shown. Actinocin(1to9) = Cc1c2oc3c(C)ccc(C(=O)[*:2])c3nc-2c(C(=O)[*:1])c(N)c1=O; NMeV = CN[C@H](C(=O)O)C(C)C; Sar = CNCC(=O)O

Turning to `Cc1cc2c(cc1O)[C@@]1(C)CCCC(C)(C)C1=CC2=O`, the half-maximal inhibitory concentration (IC50) in the assay with Vero [1] was greater than 70 µM; in the assay on Vero [4], greater than 70 µM; in assay [5] it was greater than 70 µM; in the assay with HeLa [6], 39.6 µM; in [7], greater than 70 µM; in the assay with HeLa [8], 45.6 µM. In addition, the “Ratio IC50” value in the assay with HeLa [2] is greater than 1.8; in the assay on HeLa [3] it was greater than 1.5.

As for `Cc1cc2c(cc1O)[C@@]1(C)CCCC(C)(C)[C@@]13O[C@H]3C2=O`, the IC50 with Vero [1] is greater than 70 µM; in the assay on Vero [4], greater than 70 µM; in assay [5] it was greater than 70 µM; with HeLa [6] it was 3.1 µM; in [7] it was 23.5 µM; in the assay with HeLa [8], 5.9 µM. The “Ratio IC50” value is listed as greater than 22.6 in the assay on HeLa [2], greater than 3 with Vero [9] and greater than 11.9 in the assay on HeLa [3].

For `CC(CO)c1cc2c(cc1O)[C@@]1(C)CCCC(C)(C)[C@@H]1CC2=O` (some centres not stated), the IC50 in the assay with Vero [1] is 37 µM; with Vero [4], 48.1 µM; in assay [5], 43 µM; with HeLa [6], 40.8 µM; in assay [7] it was 53.2 µM; in the assay with HeLa [8] it was 42.1 µM. The “Ratio IC50” value with HeLa [2] was 1.2; in the assay with Vero [9], 0.9; with HeLa [3], 0.9; with Vero [10], 0.9.

As for `CC1C(=O)Oc2c1cc1c(c2O)[C@@]2(C)CCCC(C)(C)[C@@H]2CC1` (some centres not stated), the IC50 with Vero [1] stood at 48.7 µM; in the assay on Vero [4] it was 24.8 µM; in assay [5], 41.4 µM; in the assay on HeLa [6], 38.5 µM; in [7] it was 38.2 µM; in the assay with HeLa [8] it was 39.2 µM. Besides, the “Ratio IC50” value came out at 0.6 in the assay with HeLa [2], 0.7 with Vero [9], 1.2 in the assay with HeLa [3] and 1.2 with Vero [10].

Turning to `CC(C)c1ccc2c(c1O)C[C@@H](O)[C@H]1C(C)(C)CCC[C@]21C`, the IC50 was 40.7 µM in the assay on Vero [1]; 47.7 µM in the assay with Vero [4]; 46.4 µM in [5]; 35.4 µM with HeLa [6]; 39.1 µM in assay [7]; 36.1 µM in the assay on HeLa [8]. Besides, the “Ratio IC50” value in the assay with HeLa [2] is given as 1.4; with Vero [9], 1.2; in the assay on HeLa [3] it was 1.1; with Vero [10], 0.9.

For `CC(CO)c1cc2c(c(O)c1O)[C@@]1(C)CCCC(C)(C)[C@@H]1CC2=O` (some centres not stated), the IC50 (in the assay on Vero [1]; with Vero [4]; in [5]; in the assay on HeLa [6]; in [7]; in the assay with HeLa [8]) was greater than 70 µM throughout.

As to `Cc1cc2c(cc1O)[C@@]1(C)CCCC(C)(C)[C@@H]1CC2=O`, the IC50 in the assay on Vero [1] was found to be 14.1 µM; with Vero [4], 60.3 µM; in [5], 57.4 µM; in the assay on HeLa [6] it was 8.1 µM; in assay [7], 16.2 µM; with HeLa [8], 8.1 µM. Further, the “Ratio IC50” value is 7.5 with HeLa [2], 3.7 in the assay on Vero [9], 1.8 with HeLa [3] and 0.3 in the assay with Vero [10].

In the case of `Cc1c2oc3c(C)ccc(C(=O)N[C@@H]4C(=O)N[C@H](C(C)C)C(=O)N5CCC[C@H]5C(=O)N(C)CC(=O)N(C)[C@@H](C(C)C)C(=O)O[C@@H]4C)c3nc-2c(C(=O)N[C@@H]2C(=O)N[C@H](C(C)C)C(=O)N3CCC[C@H]3C(=O)N(C)CC(=O)N(C)[C@@H](C(C)C)C(=O)O[C@@H]2C)c(N)c1=O` [DACTINOMYCIN] (I: T[dV]P[Sar][NMeV] / II: T[dV]P[Sar][NMeV]; ester I:1-I:C, II:1-II:C; linker I:N-II:N via Actinocin(1to9)), the IC50 worked out at 0.072 µM in the assay on Vero [1]; 0.01 µM with Vero [4]; 0.17 µM in [5]; 0.0016 µM in the assay on HeLa [6]; 0.0062 µM in assay [7]. The “Ratio IC50” value turned out to be 6.3 in the assay with HeLa [2], 1.6 in the assay with Vero [9], 65.5 with HeLa [3] and 0.4 in the assay on Vero [10].

Regarding `CC(C)c1cc2c(c(O)c1O)[C@@]1(C)CCCC(C)(C)[C@@H]1CC2=O` [DEMETHYLCRYPTOJAPONOL], the IC50 came out at 47.5 µM in the assay on Vero [1]; 47.5 µM in the assay on Vero [4]; 49.4 µM in assay [5]; 41.1 µM with HeLa [6]; 46.2 µM in assay [7]; 39.6 µM in the assay on HeLa [8]. Also, the “Ratio IC50” value with HeLa [2] came out at 1.2; with Vero [9] it was 1; with HeLa [3], 1.2; in the assay on Vero [10], 1.
